Assay results from patent US20250177347A1, “SCLAREOL OR SCLAREOLIDE FOR USE IN THE TREATMENT OF INFLAMMATORY SKIN CONDITIONS” (ISP Investments LLC, priority 2022, published 2025).
≈ marks a conversion by molar mass, not a printed value. One block for each compound: values may come before it.

Tests used:
C. albicans KCTC7965 = details: cited from earlier work
[1] = tested on: C. tropicalis var. tropicalis KCTC17762; details: cited from earlier work
[2] = tested on: C. parapsilosis var. parapsilosis KACC45480; details: cited from earlier work
[3] = tested on: C. parapsilosis KACC49573; details: cited from earlier work
C. glabrata KCTC7219 = details: cited from earlier work
C. auris KCTC17809 = details: cited from earlier work
Malassezia restricta = test: Broth microdilution MIC assay (EUCAST guidelines, slight modifications), resazurin fluorescence; assay type: cell-based; details: 48 h-60 h at 34° C.
Method: Objective: Sclareolide antifungal potential on Malassezia restricta was evaluated by the broth microdilution method.
Protocol: Malassezia restricta was routinely grown on modified Leeman-Notman (mLN) agar. The broth microdilution assay was performed following EUCAST guidelines (www.eucast.org) with slight modifications. Between five and ten colonies were suspended in a modified RPMI 1640 media supplemented with resazurin at a D.O (Density Optical) of 0.1. In a 96 well plate, serial dilutions of sclareolide (0.00023% to 0.12%) from a 24% stock solution in DMSO, and ketoconazole (0.001 to 0.25 μg/ml) solutions were prepared in modified RPMI 1640 culture medium. An equal volume of Malassezia restricta inoculum was added to the test samples at different concentrations. Following 48 h-60 h of incubation at 34° C., resazurin fluorescence was analyzed at 530 nm and 590 nm.
Results and conclusion: Results are presented as relative fluorescence intensity compared to DMSO control. MIC is defined as the lowest drug concentration that prevents growth of microorganisms.

[4] = tested on: scalp reconstructed human epidermis; test: Malassezia restricta applied topically to scalp reconstructed human epidermis: histology and cytokine ELISA; assay type: cell-based; details: sclareolide 0.12% topical, two applications
From the text: Objective: Sclareolide anti-inflammatory effect and barrier function prevention was quantified by cytokine quantification and histological observation respectively
Protocol: Malassezia restricta was applied topically to a scalp reconstructed human epidermis. This in vitro model is reconstructed from keratinocytes isolated from scalp skin. More precisely, the location of the epidermis used to isolate keratinocytes is interfollicular epidermis. These interfollicular keratinocytes was harvested and transferred into a cell culture insert and after several days of reconstruction, 100 μl of Malassezia restricta was applied on the top of the epidermis. Two days later, 100 μL sclareolide at a concentration of 0,12% was applied on the top of the epidermis, another application was performed after 24 hours. Ninety-six hours after the beginning of the Malassezia treatment, scalp reconstructed epidermis was stopped to performed histological analysis to observe modifications in the upper layers of the epidermis and the supernatant was harvested to measure inflammatory cytokine release by ELISA method.
In parallel, sclareolide decreased the inflammation induced by Malassezia restricta by the decrease of interleukin-8 release by 40,3% illustrated by FIG. 2.

keratin 10 = test: Keratin 10 immunohistochemistry in biopsies of healthy human abdominal skin in culture; assay type: cell-based
Method: Objective: The aim of this study is to show the effect of sclareolide on the synthesis of keratin 10 in biopsies of healthy abdominal skin.
Method: keratin 10 was assessed by immunohistochemistry with a specific antibody. […] Control biopsies received only 0.1% DMSO. The immunostaining was performed using paraffin sections incubated in the presence of anti-keratin 10 antibody (rabbit monoclonal, Abcam). After an hour and a half of incubation followed by rinses, the sections were incubated in the presence of the secondary anti-rabbit antibody coupled with a fluorophore (Alexa Fluor® 488, Invitrogen). The sections were then examined under a fluorescence microscope (Nikon Eclipse Ni-E microscope). […] fluorescence was then observed (using NiS-AR Nikon acquisition software) and quantified by image analysis (Volocity® image analysis software, Improvision).
(§1) This effect may be associated with a better quality of the skin barrier function.

epidermal lipids = test: Epidermal lipids, Nile Red staining, in biopsies of healthy human abdominal skin in culture; assay type: cell-based
Method: Objective: The aim of this study is to show the effect of sclareolide on the synthesis of epidermal lipids in biopsies of healthy abdominal skin.
Method: Epidermal lipids were assessed by fluorescent staining by using the fluorescent dye Nile Red.
[…] Control biopsies received only 0.1% DMSO. The epidermal lipids staining was performed using paraffin sections incubated with 100 nM of Nile Red solution (Sigma) for 10 minutes. The sections were then examined under a fluorescence microscope (Nikon Eclipse Ni-E microscope). Red fluorescence was then observed (using NiS-AR Nikon acquisition software) and quantified by image analysis (Volocity® image analysis software, Improvision).
as §1

[5] = modified RPMI 1640, relative fluorescence vs DMSO control
[6] = sclareolide 0.0025% in 0.1% DMSO, twice a day for 48 hours topically, vs 0.1% DMSO control
[7] = skin biopsies cultures, composition comprising of sclareolide

SMILES: C=C[C@](C)(O)CC[C@@H]1[C@@]2(C)CCCC(C)(C)[C@@H]2CC[C@@]1(C)O [Sclareol]
Growth, biofilm formation, and yeast-hyphal transition (C. albicans KCTC7965): inhibiting growth, biofilm formation, and yeast-hyphal transition
Growth, biofilm formation, and yeast-hyphal transition [1]: inhibiting growth, biofilm formation, and yeast-hyphal transition
Growth, biofilm formation, and yeast-hyphal transition [2]: inhibiting growth, biofilm formation, and yeast-hyphal transition
Growth, biofilm formation, and yeast-hyphal transition [3]: inhibiting growth, biofilm formation, and yeast-hyphal transition
Growth, biofilm formation, and yeast-hyphal transition (C. glabrata KCTC7219): inhibiting growth, biofilm formation, and yeast-hyphal transition
Growth, biofilm formation, and yeast-hyphal transition (C. auris KCTC17809): inhibiting growth, biofilm formation, and yeast-hyphal transition

MIC (Malassezia restricta; Malassezia restricta, modified RPMI 1640): 0.0625 µg/mL (≈ 0.118 µM)
SMILES: CC(=O)N1CCN(c2ccc(OCC3COC(Cn4ccnc4)(c4ccc(Cl)cc4Cl)O3)cc2)CC1 (stereo not drawn) [ketoconazole, reference compound]

Concentration at which growth of Malassezia restricta was completely inhibited (MIC) (Malassezia restricta; [5]): 0.12%
SMILES: CC1(C)CCC[C@]2(C)[C@H]3CC(=O)O[C@]3(C)CC[C@@H]12 [sclareolide, Sclareolide]
Concentration from which growth of Malassezia restricta was significantly inhibited (Malassezia restricta; [5]): 0.015%
Barrier function / penetration of Malassezia restricta in upper layers of the epidermis (histology) ([4]; 96 h): prevented the disruption of the barrier function and the penetration of Malassezia restricta in the upper layers of the epidermis
Decrease of interleukin-8 release ([4]; inflammation induced by Malassezia restricta, ELISA of supernatant at 96 h): 40,3%
Levels of keratin 10 (keratin 10; [6]): increase the levels of keratin 10
Keratin 10 expression (keratin 10; [7]): increased
Levels of epidermal lipids (epidermal lipids; [6]): increase the levels of epidermal lipids
Total lipid content (epidermal lipids; [7]): increased
